# Laboratory results: patent US20130296347A1, “Compositions and Methods for Prophylaxis and Treatment of Addictions” (Omeros Corporation, priority 2007, published 2013)
# “Also recorded” adds a separate entry of the source.
# Experiments:
# [1] = tested on: Wistar rats; experiment: Alcohol withdrawal score after six days of intermittent alcohol intoxication; format: in vivo, rat
# Description: Male Wistar rats were subjected to a six days of intermittent alcohol intoxication. […] The first ethanol dose was given at the beginning of the dark phase. The other 3 daily doses were administered at intervals of 3 hours. Rats were not injected during the light phase of the light/dark cycle. […] Behavioural signs of withdrawal included: (1) presence of the ventromedial distal flexion response; (2) tail stiffness/rigidity; and (3) tremors (Schulteis et al. 1995). […] Schulteis, et al., 1995). All signs were cumulated to yield an overall withdrawal severity score.
# [2] = Young, Buckle et al. 1998; Breidert et al. 2002; cited from earlier work
# [3] = tested on: Long Evans rats; experiment: FR5 nicotine self-administration; format: in vivo, rat; conditions: pioglitazone 30 mg/kg OS 12 hours and 1 hour before session; p<0.05
# Description: Bupropion hydrochloride (Sigma, Milan, Italy) was dissolved in saline. Nicotine tartrate (Sigma, Milan, Italy) was dissolved in isotonic saline at a concentration of 0.03 mg/0.1 ml free base. The pH of the nicotine solution was adjusted to 7 with dilute NaOH. Drug or vehicle solution was infused at a volume of 0.1 ml over 4 s.
# (§1) Male Long Evans rats weighing between 180 and 200 g at the time of arrival in the lab were used. The rats were housed in groups of three in a humidity- and temperature-controlled (22° C.) vivarium on a 12 h:12 h reverse light/dark cycle (on, 17:00; off, 05:00) with ad libitum access to food and water. One week after arrival, the rats were subjected to surgery, and a silastic catheter was implanted into the right jugular vein.
# After the successful completion of cocaine training, rats were allowed to self-administer nicotine at the 0.03 mg/kg/infusion dose by switching the delivery of cocaine for the delivery of a nicotine infusion. Nicotine self-administration training continued until stable baseline of responding was established (less than 20% variation for 3 consecutive days calculated for each single rat). At this point, drug testing began.
# . […] A 3-day interval was allowed between drug testing. During these intervals, nicotine self-administration was continued to re-establish lever responses baseline.
# Statistical significance was set at P<0.05
# [4] = tested on: Wistar rats; experiment: FR5 cocaine self-administration; format: in vivo, rat; conditions: pioglitazone both 10.0 and 30.0 mg/kg OS 12 hours and 1 hour before session
# Description: […]. Drug or vehicle solution was infused at a volume of 0.1 ml over 4 s.
# as §1, with “Wistar” for “Long Evans”, “h: 12” for “h:12”, “arrival,” for “arrival, the”
# Cocaine self-administration training continued until a stable baseline of responding was reached (less than 10% variation for 3 consecutive days calculated for each single rat). At this point, drug testing begun.
# . […] A 3-day interval was allowed between drug testing. During these intervals, cocaine self-administration was continued to re-establish baseline lever responses.
# [5] = tested on: Marchigian Sardinian alcohol-preferring (msP) rats; experiment: Subchronic (7 days) voluntary ethanol intake, 10% alcohol available 24 hours/day; format: in vivo, rat
# Description: At the beginning of the experiments, msP rats were allowed free choice between water and 10% (v/v) alcohol 24 h/day for at least 15 days. The fluids were offered in graduated drinking tubes equipped with metallic drinking spouts. The position (to the right or left) of alcohol and water drinking tubes was changed daily to avoid the development of side preference. Water and food were available ad libitum, while alcohol access was either restricted to 2 hours/day (Examples 1 and 2) or was available 24 hours/day (Examples 3 and 4). Alcohol, water and food intakes were measured.
# […]. Before starting the treatment, rats were trained to gavage administration procedures for three days, during which they received vehicle (distilled water).
# Alcohol, water and food intakes were monitored at 2, 8 and 24 hours. Fluids and food intakes were monitored for three additional days after the end of the drug treatment period.
# […]. According to a between-subject design, four groups of msP rats (N=9/group) were prepared as described in Example 3. […] […]. Alcohol, water and food intakes were monitored at 2, 8 and 24 hours. Fluids and food intakes were monitored for three additional days after the end of the drug treatment period.
# [6] = tested on: msP rats; experiment: Cue-induced reinstatement of alcohol seeking; format: in vivo, rat; conditions: pioglitazone 10.0, 30.0 mg/kg at 12 hours and 1 hour before test
# Description: Cue-induced reinstatement of alcohol-seeking behaviour experimental procedures consisted of three phases: (1) conditioning phase; (2) extinction phase; and (3) reinstatement phase, as described below.
# For the conditioning phase, at the completion of the fading procedure (see above), in 30 min daily sessions, animals were trained to discriminate between 10% alcohol and water. Beginning with self-administration training at the 10% alcohol concentration, discriminative stimuli (SD) predictive of alcohol versus water availability were presented during the alcohol and water self-administration sessions, respectively. The discriminative stimulus for alcohol consisted of the odour of an orange extract (S^+) whereas water availability (i.e. no reward) was signalled by an anise extract (S^−). The olfactory stimuli were generated by depositing six to eight drops of the respective extract into the bedding of the operant chamber. In addition, each lever-press resulting in delivery of alcohol was paired with illumination of the chamber's house light for 5 sec (CS^+). The corresponding cue during water sessions was a 5 second tone (70 dB) (CS). Concurrently with the presentation of these stimuli, a 5 sec. time-out period was in effect, during which responses were recorded but not reinforced. The olfactory stimuli serving as S^+ or S^− for alcohol availability were introduced one minute before extension of the levers and remained present throughout the 30-min. sessions. The bedding of the chamber was changed and bedding trays were cleaned between sessions. During the first three days of the conditioning phase, the rats were given alcohol sessions only. Subsequently, alcohol and water sessions were conducted in random order across training days, with the constraint that all rats received a total of 10 alcohol and 10 water sessions.
# For the extinction phase, after the last conditioning day, rats were subjected to 30-min extinction sessions for 15 consecutive days. During this phase, sessions began by extension of the levers without presentation of the SD. […]
# [7] = tested on: CD mice; experiment: Tail-flick test, morphine-induced analgesic tolerance; format: in vivo, mouse; conditions: pioglitazone alone 10 or 30 mg/kg
# Description: All procedures were conducted in adherence to the European Community Council Directive for Care and Use of Laboratory Animals.
# Mice were divided into 6 groups. Group 1 (n=8) received drug vehicles (veh/veh). […] Animals were treated twice daily (between 9:00 and 10:00 a.m. and 9:00 and 10:00 p.m.).
# Morphine hydrochloride was purchased from Salars (Milano, Italy). Morphine (30 mg/kg) was dissolved in NaCl […] and was injected intraperitoneally (IP) twice a day at the indicated doses in a volume of 0.2 ml per mice. […] It was dissolved in distilled water and was administered per o.s. at the doses of 10 mg/kg and 30 mg/kg in a volume of 0.6 ml per mice.
# Two different tests were used to monitor analgesic responses. The tail-flick test was performed 45 min after the morning injection of morphine, and the tail-immersion test was performed 45 min after the evening injection of morphine.
# For the tail-flick test, each mouse was gently restrained in a soft tissue pocket, and the tail (1 cm from the tip) was exposed to a hot light beam. Latency for tail-flick was measured with a 6 seconds cut-off time. For the tail-immersion test, each mouse was restrained in a soft tissue pocket, and the distal half of the tail dipped into a water bath set at 52 C°. Latency for removing the tail from the hot water was measured with a 10 seconds cut-off time.
# [8] = pioglitazone 10 and 30 mg/kg, p<0.01
structure (smiles),measurement,setting,value
CCc1ccc(CCOc2ccc(CC3SC(=O)NC3=O)cc2)nc1.Cl (stereo not shown) [pioglitazone],alcohol withdrawal signs,"[1]; pioglitazone 10 mg/kg and 30 mg/kg, 12 hours and 1 hour before rating",significantly reduced
same,tail rigidity,[1]; [8],highly significant effect
same,tremors,[1]; [8],highly significant effect
same,ventromedial limb retraction,[1]; [8],highly significant effect
same,rats showing seizures during withdrawal,[1]; pioglitazone treated rats (two out of 7 vehicle animals showed convulsion),none of the 12 rats
same,crossing of the blood brain barrier compared with rosiglitazone,[2],crosses the blood brain barrier more easily
same,nicotine self-administration,[3],significantly reduced
same,cocaine self-administration,[4],significant (p<0.01) reduction
same,"voluntary ethanol intake, overall",[5]; pioglitazone 10.0 or 30.0 mg/kg OS twice a day for 7 days,significantly reduced
same,ethanol intake starting from the 4th day of treatment,[5]; pioglitazone both doses (10 and 30 mg/kg),significantly reduced
same,"ethanol intake, onset of effect","[5]; pioglitazone highest dose (30 mg/kg), 7 days",appeared from the first day of treatment
same,cue-induced (conditioned) reinstatement of alcohol-seeking,[6],not significantly modified; also recorded: lack of effect
same,analgesic responses (tail-flick),[7],did not differ from controls
